# Tests used:
# Settings in all cases: three weeks after treatment
# [1] = tested on: Galium aparine; assay: Post-emergence herbicidal evaluation, GALAP
# [2] = tested on: Amaranthus tuberculatus; assay: Post-emergence herbicidal evaluation, AMATA; assay type: in vivo
# [3] = tested on: Hordeum vulgare; assay: Pre-emergence herbicidal evaluation, HORVW; assay type: in vivo
# Description: (§1) The treated pots are then placed on greenhouse benches, watered and cared for in accordance with conventional greenhouse procedures.
# [4] = tested on: Triticum aestivum; assay: Post-emergence herbicidal evaluation, TRZAW
# [5] = tested on: Triticum aestivum; assay: Pre-emergence herbicidal evaluation, TRZAW; assay type: in vivo
# Description: as §1
# [6] = tested on: Oryza sativum; assay: Pre-emergence herbicidal evaluation, ORYSA; assay type: in vivo
# Description: as §1
# [7] = tested on: Echinochloa crus-galli; assay: Post-emergence herbicidal evaluation, ECHCG
# [8] = tested on: Glycine max; assay: Post-emergence herbicidal evaluation, GLXMA
# [9] = tested on: Amaranthus tuberculatus; assay: Pre-emergence herbicidal evaluation, AMATA; assay type: in vivo
# Description: as §1
# [10] = tested on: Zea mays; assay: Pre-emergence herbicidal evaluation, ZEAMX; assay type: in vivo
# Description: as §1
# [11] = tested on: Hordeum vulgare; assay: Post-emergence herbicidal evaluation, HORVW
# [12] = tested on: Alopecurus myosuroides; assay: Pre-emergence herbicidal evaluation, ALOMY; assay type: in vivo
# Description: as §1
# [13] = tested on: Lolium perenne; assay: Pre-emergence herbicidal evaluation, LOLPE; assay type: in vivo
# Description: as §1
# [14] = tested on: Glycine max; assay: Pre-emergence herbicidal evaluation, GLXMA; assay type: in vivo
# Description: as §1
# [15] = tested on: Setaria viridis; assay: Post-emergence herbicidal evaluation, SETVI
# Description: (§2) The compounds of the invention are tested for pre- and post-emergence herbicidal activity.
# (§3) Each pot is examined three weeks after treatment and phytotoxicity is assessed according to the rating system set forth below.
# (§4) These acetone solutions are diluted with water and the resulting formulations applied at dosage levels equivalent of about 0.4 to 0.1 kg per hectare of test compound per pot. After spraying the plants are placed on greenhouse benches and are cared for in the usual manner, commensurate with conventional greenhouse practices.
# [16] = tested on: Oryza sativum; assay: Post-emergence herbicidal evaluation, ORYSA
# [17] = tested on: Echinochloa crus-galli; assay: Pre-emergence herbicidal evaluation, ECHCG; assay type: in vivo
# Description: as §1
# [18] = tested on: Zea mays; assay: Post-emergence herbicidal evaluation, ZEAMX
# [19] = tested on: Lolium perenne; assay: Post-emergence herbicidal evaluation, LOLPE
# [20] = tested on: Alopecurus myosuroides; assay: Post-emergence herbicidal evaluation, ALOMY
# Description: as §2, §3, §4
# [21] = tested on: Apera spica venti; assay: Post-emergence herbicidal evaluation, APESV
# Description: as §2, §3, §4
# [22] = tested on: Setaria viridis; assay: Pre-emergence herbicidal evaluation, SETVI; assay type: in vivo
# Description: as §1
# [23] = tested on: Apera spica venti; assay: Pre-emergence herbicidal evaluation, APESV; assay type: in vivo
# Description: as §1
smiles,measurement,setting,value
CC1=CC(N(C)C(=O)COc2nc3ccccc3o2)=CC(C)(C)C1 [Example 16],phytotoxicity rating GALAP,[1]; 0.100 kg/ha,3 (3 - Moderate effect)
same,phytotoxicity rating GALAP,[1]; 0.200 kg/ha,3 (3 - Moderate effect)
same,phytotoxicity rating GALAP,[1]; 0.400 kg/ha,4 (4 - Injury)
same,phytotoxicity rating AMATA,[2]; 0.100 kg/ha,3 (3 - Moderate effect)
same,phytotoxicity rating AMATA,[2]; 0.400 kg/ha,3 (3 - Moderate effect)
same,phytotoxicity rating HORVW,[3]; 0.100 kg/ha,0 (0 - No effect)
same,phytotoxicity rating HORVW,[3]; 0.200 kg/ha,0 (0 - No effect)
same,phytotoxicity rating HORVW,[3]; 0.400 kg/ha,2 (2 - Slight effect)
same,phytotoxicity rating HORVW,[3]; 0.800 kg/ha,3 (3 - Moderate effect)
same,phytotoxicity rating TRZAW,[4]; 0.100 kg/ha,0 (0 - No effect)
same,phytotoxicity rating TRZAW,[4]; 0.200 kg/ha,0 (0 - No effect)
same,phytotoxicity rating TRZAW,[4]; 0.400 kg/ha,0 (0 - No effect)
same,phytotoxicity rating TRZAW,[5]; 0.100 kg/ha,0 (0 - No effect)
same,phytotoxicity rating TRZAW,[5]; 0.200 kg/ha,0 (0 - No effect)
same,phytotoxicity rating TRZAW,[5]; 0.400 kg/ha,0 (0 - No effect)
same,phytotoxicity rating TRZAW,[5]; 0.800 kg/ha,1 (1 - Trace effect)
same,phytotoxicity rating ORYSA,[6]; 0.100 kg/ha,0 (0 - No effect)
same,phytotoxicity rating ORYSA,[6]; 0.200 kg/ha,0 (0 - No effect)
same,phytotoxicity rating ORYSA,[6]; 0.400 kg/ha,2 (2 - Slight effect)
same,phytotoxicity rating ORYSA,[6]; 0.800 kg/ha,5 (5 - Definite injury)
same,phytotoxicity rating ECHCG,[7]; 0.100 kg/ha,0 (0 - No effect)
same,phytotoxicity rating ECHCG,[7]; 0.200 kg/ha,0 (0 - No effect)
same,phytotoxicity rating ECHCG,[7]; 0.400 kg/ha,0 (0 - No effect)
same,phytotoxicity rating GLXMA,[8]; 0.100 kg/ha,2 (2 - Slight effect)
same,phytotoxicity rating GLXMA,[8]; 0.200 kg/ha,3 (3 - Moderate effect)
same,phytotoxicity rating GLXMA,[8]; 0.400 kg/ha,4 (4 - Injury)
same,phytotoxicity rating AMATA,[9]; 0.100 kg/ha,0 (0 - No effect)
same,phytotoxicity rating AMATA,[9]; 0.200 kg/ha,3 (3 - Moderate effect)
same,phytotoxicity rating AMATA,[9]; 0.400 kg/ha,3 (3 - Moderate effect)
same,phytotoxicity rating AMATA,[9]; 0.800 kg/ha,7 (7 - Good herbicidal effect)
same,phytotoxicity rating ZEAMX,[10]; 0.100 kg/ha,0 (0 - No effect)
same,phytotoxicity rating ZEAMX,[10]; 0.200 kg/ha,0 (0 - No effect)
same,phytotoxicity rating ZEAMX,[10]; 0.400 kg/ha,0 (0 - No effect)
same,phytotoxicity rating ZEAMX,[10]; 0.800 kg/ha,0 (0 - No effect)
same,phytotoxicity rating HORVW,[11]; 0.100 kg/ha,0 (0 - No effect)
same,phytotoxicity rating HORVW,[11]; 0.200 kg/ha,0 (0 - No effect)
same,phytotoxicity rating HORVW,[11]; 0.400 kg/ha,2 (2 - Slight effect)
same,phytotoxicity rating ALOMY,[12]; 0.100 kg/ha,6 (6 - Herbicidal effect)
same,phytotoxicity rating ALOMY,[12]; 0.200 kg/ha,8 (8 - Approaching complete kill)
same,phytotoxicity rating ALOMY,[12]; 0.400 kg/ha,8 (8 - Approaching complete kill)
same,phytotoxicity rating ALOMY,[12]; 0.800 kg/ha,9 (9 - Complete kill)
same,phytotoxicity rating LOLPE,[13]; 0.100 kg/ha,0 (0 - No effect)
same,phytotoxicity rating LOLPE,[13]; 0.200 kg/ha,0 (0 - No effect)
same,phytotoxicity rating LOLPE,[13]; 0.400 kg/ha,3 (3 - Moderate effect)
same,phytotoxicity rating LOLPE,[13]; 0.800 kg/ha,8 (8 - Approaching complete kill)
same,phytotoxicity rating GLXMA,[14]; 0.100 kg/ha,0 (0 - No effect)
same,phytotoxicity rating GLXMA,[14]; 0.200 kg/ha,0 (0 - No effect)
same,phytotoxicity rating GLXMA,[14]; 0.400 kg/ha,0 (0 - No effect)
same,phytotoxicity rating GLXMA,[14]; 0.800 kg/ha,0 (0 - No effect)
same,phytotoxicity rating SETVI,[15]; 0.100 kg/ha,0 (0 - No effect)
same,phytotoxicity rating SETVI,[15]; 0.200 kg/ha,0 (0 - No effect)
same,phytotoxicity rating SETVI,[15]; 0.400 kg/ha,0 (0 - No effect)
same,phytotoxicity rating ORYSA,[16]; 0.100 kg/ha,0 (0 - No effect)
same,phytotoxicity rating ORYSA,[16]; 0.200 kg/ha,0 (0 - No effect)
same,phytotoxicity rating ORYSA,[16]; 0.400 kg/ha,2 (2 - Slight effect)
same,phytotoxicity rating ECHCG,[17]; 0.100 kg/ha,5 (5 - Definite injury)
same,phytotoxicity rating ECHCG,[17]; 0.200 kg/ha,6 (6 - Herbicidal effect)
same,phytotoxicity rating ECHCG,[17]; 0.400 kg/ha,7 (7 - Good herbicidal effect)
same,phytotoxicity rating ECHCG,[17]; 0.800 kg/ha,9 (9 - Complete kill)
same,phytotoxicity rating ZEAMX,[18]; 0.100 kg/ha,0 (0 - No effect)
same,phytotoxicity rating ZEAMX,[18]; 0.200 kg/ha,0 (0 - No effect)
same,phytotoxicity rating ZEAMX,[18]; 0.400 kg/ha,0 (0 - No effect)
same,phytotoxicity rating LOLPE,[19]; 0.100 kg/ha,4 (4 - Injury)
same,phytotoxicity rating LOLPE,[19]; 0.200 kg/ha,6 (6 - Herbicidal effect)
same,phytotoxicity rating LOLPE,[19]; 0.400 kg/ha,7 (7 - Good herbicidal effect)
same,phytotoxicity rating ALOMY,[20]; 0.100 kg/ha,2 (2 - Slight effect)
same,phytotoxicity rating ALOMY,[20]; 0.200 kg/ha,5 (5 - Definite injury)
same,phytotoxicity rating ALOMY,[20]; 0.400 kg/ha,7 (7 - Good herbicidal effect)
same,phytotoxicity rating APESV,[21]; 0.100 kg/ha,0 (0 - No effect)
same,phytotoxicity rating APESV,[21]; 0.200 kg/ha,6 (6 - Herbicidal effect)
same,phytotoxicity rating APESV,[21]; 0.400 kg/ha,4 (4 - Injury)
same,phytotoxicity rating SETVI,[22]; 0.100 kg/ha,5 (5 - Definite injury)
same,phytotoxicity rating SETVI,[22]; 0.200 kg/ha,8 (8 - Approaching complete kill)
same,phytotoxicity rating SETVI,[22]; 0.400 kg/ha,9 (9 - Complete kill)
same,phytotoxicity rating SETVI,[22]; 0.800 kg/ha,9 (9 - Complete kill)
same,phytotoxicity rating APESV,[23]; 0.200 kg/ha,4 (4 - Injury)
same,phytotoxicity rating APESV,[23]; 0.400 kg/ha,8 (8 - Approaching complete kill)
same,phytotoxicity rating APESV,[23]; 0.800 kg/ha,9 (9 - Complete kill)

# Reference: patent publication US6339042B1, “Herbicidal N-cyclohexadienyl heteroaryloxyacetamides” (American Cyanamid Co., priority 1999, dated 2002)
